According to US6972319B1, “Pituitary adenylate cyclase activating peptide (PACAP)receptor 3 (R3) agonists and their pharmacological methods of use” (priority 1999, dated 2005):

Molecular target: T1, PACAP-R3 (Homo sapiens, UniProt P41587)
T1 sequence (P41587 24-438): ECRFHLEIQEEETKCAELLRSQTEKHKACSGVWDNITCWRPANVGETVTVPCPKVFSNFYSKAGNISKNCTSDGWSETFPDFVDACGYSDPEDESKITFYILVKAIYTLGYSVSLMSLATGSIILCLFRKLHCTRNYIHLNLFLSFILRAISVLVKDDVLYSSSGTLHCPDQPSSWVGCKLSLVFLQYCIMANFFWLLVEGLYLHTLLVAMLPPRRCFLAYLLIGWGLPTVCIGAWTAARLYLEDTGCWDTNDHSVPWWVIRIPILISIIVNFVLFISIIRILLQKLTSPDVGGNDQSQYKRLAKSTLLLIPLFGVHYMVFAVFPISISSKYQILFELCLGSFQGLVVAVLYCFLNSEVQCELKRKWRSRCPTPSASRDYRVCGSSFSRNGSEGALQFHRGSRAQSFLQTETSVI
Experiment: Cyclic AMP SPA on CHO cells expressing PACAP R3
Type: cell-based
Design: expressed in transfected cells; host or cells: CHO cells (Geneticin selection)
Conditions: for EC50: cAMP SPA, CHO cells transfected with PACAP-R3, concentration at which 50% of maximum PACAP27 activity is achieved, NA = no detectable activities, read-out: R3 EC50
Protocol: CHO cells expressing the PACAP R3 were plated in 96-well plates (Costar) at 8×10^4 cell/well and grown at 37 C. for 24 hours in α MEM+nucleosides+glutamine (Giobco BRL), 10% FBS, 100 μg/ml Pen/Strep, 0.3 mg/ml glutamine, 1 mM HEPES, 0.5 mg/ml Geneticin (Gibco BRL). The media was removed and the plates were washed with PBS. The cells were incubated with a peptide, in Hepes-PBS-BSA with 0.4 mg/mlSoybean Trypsin Inhibitor, 0.5 mg/ml Bacitracin, 100 uM IBMX, for 15 min at 37 C. Cyclic AMP in the cell extracts was quantitated using the cAMP SPA direct screening assay system (Amersham Pharmacia Biotech Inc, Piscataway, N.J.,). The peptides shown in Table 3 were assayed for cAMP activity.
EC50 is defined as the concentration of the polypeptide at which 50% of maximum PACAP27 activity is achieved. “NA” denotes no detectable activities. “R3 Selectivity” is derived from the ratio of EC50 at R2 versus EC50 at R3.

| EC50 | SMILES | R3 Selectivity (ratio of EC50 at R2 versus EC50 at R3) |
| --- | --- | --- |
| 0.7 nM | CSCC[C@H](NC(=O)[C@H](CCC(N)=O)NC(=O)[C@H](CCCCN)NC(=O)[C@H](CCCNC(=N)N)NC(=O)[C@H](Cc1ccc(O)cc1)NC(=O)[C@H](CCCNC(=N)N)NC(=O)[C@H](CO)NC(=O)[C@H](Cc1ccc(O)cc1)NC(=O)[C@H](CO)NC(=O)[C@H](CC(=O)O)NC(=O)[C@@H](NC(=O)[C@H](Cc1ccccc1)NC(=O)[C@H](CCCCN)NC(=O)CNC(=O)[C@H](CC(=O)O)NC(=O)[C@H](CO)NC(=O)[C@@H](N)Cc1c[nH]cn1)[C@@H](C)O)C(=O)N[C@@H](C)C(=O)N[C@H](C(=O)N[C@@H](CCCCN)C(=O)N[C@@H](CCCCN)C(=O)N[C@@H](Cc1ccc(O)cc1)C(=O)N[C@@H](CC(C)C)C(=O)N[C@@H](C)C(=O)N[C@@H](C)C(=O)N[C@H](C(=O)N[C@@H](CC(C)C)C(N)=O)C(C)C)C(C)C [PAC5] | – |
| 1.1 nM | CC[C@H](C)[C@H](NC(=O)CNC(=O)[C@H](CC(=O)O)NC(=O)[C@H](CO)NC(=O)[C@@H](N)Cc1c[nH]cn1)C(=O)N[C@@H](Cc1ccccc1)C(=O)N[C@H](C(=O)N[C@@H](CC(=O)O)C(=O)N[C@@H](CO)C(=O)N[C@@H](Cc1ccc(O)cc1)C(=O)N[C@@H](CO)C(=O)N[C@@H](CCCNC(=N)N)C(=O)N[C@@H](Cc1ccc(O)cc1)C(=O)N[C@@H](CCCNC(=N)N)C(=O)N[C@@H](CCCCN)C(=O)N[C@@H](CCC(N)=O)C(=O)N[C@@H](CCSC)C(=O)N[C@@H](CCCCN)C(=O)N[C@H](C(=O)N[C@@H](CCCCN)C(=O)N[C@@H](CCCCN)C(=O)N[C@@H](Cc1ccc(O)cc1)C(=O)N[C@@H](CC(C)C)C(=O)N[C@@H](C)C(=O)N[C@@H](C)C(=O)N[C@H](C(=O)N[C@@H](CC(C)C)C(N)=O)C(C)C)C(C)C)[C@@H](C)O [PAC18] | – |

Continued, compound first:

| SMILES | EC50 | R3 Selectivity (ratio of EC50 at R2 versus EC50 at R3) |
| --- | --- | --- |
| CC[C@H](C)[C@H](NC(=O)CNC(=O)[C@H](CC(=O)O)NC(=O)[C@H](CO)NC(=O)[C@@H](N)Cc1c[nH]cn1)C(=O)N[C@@H](Cc1ccccc1)C(=O)N[C@H](C(=O)N[C@@H](CC(=O)O)C(=O)N[C@@H](CO)C(=O)N[C@@H](CCCCN)C(=O)N[C@@H](CO)C(=O)N[C@@H](CCCNC(=N)N)C(=O)N[C@@H](Cc1ccc(O)cc1)C(=O)N[C@@H](CCCNC(=N)N)C(=O)N[C@@H](CCCCN)C(=O)N[C@@H](CCC(N)=O)C(=O)N[C@@H](CCSC)C(=O)N[C@@H](C)C(=O)N[C@H](C(=O)N[C@@H](CCCCN)C(=O)N[C@@H](CCCCN)C(=O)N[C@@H](Cc1ccc(O)cc1)C(=O)N[C@@H](CC(C)C)C(=O)N[C@@H](C)C(=O)N[C@@H](C)C(=O)N[C@H](C(=O)N[C@@H](CC(C)C)C(N)=O)C(C)C)C(C)C)[C@@H](C)O [PAC10] | – | 4 |
| CC[C@H](C)[C@H](NC(=O)[C@H](CC(=O)O)NC(=O)[C@H](CC(N)=O)NC(=O)[C@H](CC(C)C)NC(=O)[C@H](Cc1ccc(O)cc1)NC(=O)[C@H](CCCCN)NC(=O)[C@H](CCCCN)NC(=O)[C@@H](NC(=O)[C@H](C)NC(=O)[C@H](CC(C)C)NC(=O)[C@H](CCC(N)=O)NC(=O)[C@H](CCCCN)NC(=O)[C@H](CCCNC(=N)N)NC(=O)[C@H](CC(C)C)NC(=O)[C@H](CCCNC(=N)N)NC(=O)[C@@H](NC(=O)[C@H](Cc1ccc(O)cc1)NC(=O)[C@H](CC(N)=O)NC(=O)[C@H](CC(=O)O)NC(=O)[C@@H](NC(=O)[C@H](Cc1ccccc1)NC(=O)[C@@H](NC(=O)[C@H](C)NC(=O)[C@H](CC(=O)O)NC(=O)[C@H](CO)NC(=O)[C@@H](N)Cc1c[nH]cn1)C(C)C)[C@@H](C)O)[C@@H](C)O)C(C)C)C(=O)N[C@@H](CC(C)C)C(=O)N[C@@H](CCCCN)C(=O)NCC(=O)NCC(=O)N[C@H](C(=O)O)[C@@H](C)O [Peptide R3P28] | 7 nM | – |
| CC[C@H](C)[C@H](NC(=O)[C@H](CC(=O)O)NC(=O)[C@H](CC(N)=O)NC(=O)[C@H](CC(C)C)NC(=O)[C@H](Cc1ccc(O)cc1)NC(=O)[C@H](CCCCN)NC(=O)[C@H](CCCCN)NC(=O)[C@H](C)NC(=O)[C@H](C)NC(=O)[C@H](CC(C)C)NC(=O)[C@H](CCC(N)=O)NC(=O)[C@H](CCCCN)NC(=O)[C@H](CCCNC(=N)N)NC(=O)[C@H](CC(C)C)NC(=O)[C@H](CCCNC(=N)N)NC(=O)[C@@H](NC(=O)[C@H](Cc1ccc(O)cc1)NC(=O)[C@H](CC(N)=O)NC(=O)[C@H](CC(=O)O)NC(=O)[C@@H](NC(=O)[C@H](Cc1ccccc1)NC(=O)[C@@H](NC(=O)[C@H](C)NC(=O)[C@H](CC(=O)O)NC(=O)[C@H](CO)NC(=O)[C@@H](N)Cc1c[nH]cn1)C(C)C)[C@@H](C)O)[C@@H](C)O)C(=O)N[C@@H](CCCCN)C(=O)N[C@@H](CCCCN)C(=O)NCC(=O)O [Peptide R3P32] | 0.4 nM | – |
| CC[C@H](C)[C@H](NC(=O)CNC(=O)[C@H](CC(=O)O)NC(=O)[C@H](CO)NC(=O)[C@@H](N)Cc1c[nH]cn1)C(=O)N[C@@H](Cc1ccccc1)C(=O)N[C@H](C(=O)N[C@@H](CC(=O)O)C(=O)N[C@@H](CO)C(=O)N[C@@H](Cc1ccc(O)cc1)C(=O)N[C@@H](CO)C(=O)N[C@@H](CCCNC(=N)N)C(=O)N[C@@H](Cc1ccc(O)cc1)C(=O)N[C@@H](CCCNC(=N)N)C(=O)N[C@@H](CCCCN)C(=O)N[C@@H](CCC(N)=O)C(=O)N[C@@H](CC(C)C)C(=O)N[C@@H](C)C(=O)N[C@H](C(=O)N[C@@H](CCCCN)C(=O)N[C@@H](CCCCN)C(=O)N[C@@H](Cc1ccc(O)cc1)C(=O)N[C@@H](CC(C)C)C(=O)N[C@@H](C)C(=O)N[C@@H](C)C(=O)N[C@H](C(=O)N[C@@H](CCCCN)C(=O)N[C@@H](CCCCN)C(=O)O)C(C)C)C(C)C)[C@@H](C)O [Peptide R3P39] | 0.5 nM | – |
| CC[C@H](C)[C@H](NC(=O)CNC(=O)[C@H](CC(=O)O)NC(=O)[C@H](CO)NC(=O)[C@@H](N)Cc1c[nH]cn1)C(=O)N[C@@H](Cc1ccccc1)C(=O)N[C@H](C(=O)N[C@@H](CC(=O)O)C(=O)N[C@@H](CO)C(=O)N[C@@H](Cc1ccc(O)cc1)C(=O)N[C@@H](CO)C(=O)N[C@@H](CCCNC(=N)N)C(=O)N[C@@H](Cc1ccc(O)cc1)C(=O)N[C@@H](CCCNC(=N)N)C(=O)N[C@@H](CCCCN)C(=O)N[C@@H](CCC(N)=O)C(=O)N[C@@H](CCSC)C(=O)N[C@@H](C)C(=O)N[C@H](C(=O)N[C@@H](CCCCN)C(=O)N[C@@H](CCCCN)C(=O)N[C@@H](Cc1ccc(O)cc1)C(=O)N[C@@H](CC(C)C)C(=O)N[C@@H](C)C(=O)N[C@@H](C)C(=O)N[C@H](C(=O)N[C@@H](CCCCN)C(=O)N[C@@H](CCCCN)C(=O)O)C(C)C)C(C)C)[C@@H](C)O [Peptide R3P40] | 0.7 nM | – |
| CC[C@H](C)[C@H](NC(=O)[C@@H](NC(=O)[C@H](CC(N)=O)NC(=O)[C@H](CC(C)C)NC(=O)[C@H](Cc1ccc(O)cc1)NC(=O)[C@H](CCCCN)NC(=O)[C@H](CCCCN)NC(=O)[C@H](C)NC(=O)[C@H](C)NC(=O)[C@H](CC(C)C)NC(=O)[C@H](CCC(N)=O)NC(=O)[C@H](CCCCN)NC(=O)[C@H](CCCNC(=N)N)NC(=O)[C@H](CC(C)C)NC(=O)[C@H](CCCNC(=N)N)NC(=O)[C@@H](NC(=O)[C@H](Cc1ccc(O)cc1)NC(=O)[C@H](CC(N)=O)NC(=O)[C@H](CC(=O)O)NC(=O)[C@@H](NC(=O)[C@H](Cc1ccccc1)NC(=O)[C@@H](NC(=O)[C@H](C)NC(=O)[C@H](CC(=O)O)NC(=O)[C@H](CO)NC(=O)[C@@H](N)Cc1c[nH]cn1)C(C)C)[C@@H](C)O)[C@@H](C)O)[C@@H](C)O)C(=O)N[C@@H](CCCCN)C(=O)N[C@@H](CC(N)=O)C(=O)N[C@@H](CCCCN)C(=O)N[C@@H](CCCNC(=N)N)C(=O)N[C@@H](Cc1ccc(O)cc1)C(=O)O [Peptide R3P67] | 0.3 nM | – |
| CC[C@H](C)[C@H](NC(=O)[C@@H](NC(=O)[C@H](CC(N)=O)NC(=O)[C@H](CC(C)C)NC(=O)[C@H](Cc1ccc(O)cc1)NC(=O)[C@H](CCCCN)NC(=O)[C@H](CCCCN)NC(=O)[C@H](C)NC(=O)[C@H](C)NC(=O)[C@H](CCSC)NC(=O)[C@H](CCC(N)=O)NC(=O)[C@H](CCCCN)NC(=O)[C@H](CCCNC(=N)N)NC(=O)[C@H](CC(C)C)NC(=O)[C@H](CCCNC(=N)N)NC(=O)[C@@H](NC(=O)[C@H](Cc1ccc(O)cc1)NC(=O)[C@H](CC(N)=O)NC(=O)[C@H](CC(=O)O)NC(=O)[C@@H](NC(=O)[C@H](Cc1ccccc1)NC(=O)[C@@H](NC(=O)[C@H](C)NC(=O)[C@H](CC(=O)O)NC(=O)[C@H](CO)NC(=O)[C@@H](N)Cc1c[nH]cn1)C(C)C)[C@@H](C)O)[C@@H](C)O)[C@@H](C)O)C(=O)N[C@@H](CCCCN)C(=O)N[C@@H](CC(N)=O)C(=O)N[C@@H](CCCCN)C(=O)N[C@@H](CCCNC(=N)N)C(=O)N[C@@H](Cc1ccc(O)cc1)C(=O)O [Peptide R3P70] | 0.4 nM | – |
